Molecular target: T1, human TREM2 (Homo sapiens, UniProt Q9NZC2)
T1 construct: expressed in transfected cells; host or cells: HEK293T-hTREM2 cells (HEK cell line expressing human TREM2 and DAP12)
Experiment: TREM2 agonist potency by cellular phosphorylation of Syk (AlphaLisa) in HEK293T-hTREM2 cells expressing human TREM2 and DAP12
Type: cell-based
Conditions: HEK293 cells expressing hTREM2 and DAP12; 45 minutes at room temperature; Syk phosphorylation, AlphaLisa; read-out: hTREM2 EC50
In short: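 HEK293T cells co-expressing human TREM2 and DAP12 were exposed to compound in assay buffer for 45 min at room temperature, then lysed. Phospho-Syk measured by AlphaLisa; % activation fitted with a four-parameter agonist curve to give EC50.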

T1 sequence (Q9NZC2 19-230): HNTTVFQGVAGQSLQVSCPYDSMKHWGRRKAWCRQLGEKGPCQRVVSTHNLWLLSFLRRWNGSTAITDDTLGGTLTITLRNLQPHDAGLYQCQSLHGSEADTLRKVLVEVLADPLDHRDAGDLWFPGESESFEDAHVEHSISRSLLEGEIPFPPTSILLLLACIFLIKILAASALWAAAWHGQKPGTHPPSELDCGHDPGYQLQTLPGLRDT
T1 sequence (O43914 22-113 partner): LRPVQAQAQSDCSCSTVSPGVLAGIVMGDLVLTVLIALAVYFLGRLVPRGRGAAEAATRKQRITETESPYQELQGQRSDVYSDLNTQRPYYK

SMILES | EC50 [nM]
Cc1nc2nc(C3CCOC(C4CCn5nccc5C4)C3)nc(C34CC(C(F)(F)F)(C3)C4)c2nc1C (centres unmarked) [Example 110, 6,7-dimethyl-2-[2-(4,5,6,7-tetrahydropyrazolo[1,5-a]pyridin-5-yl)tetrahydropyran-4-yl]-4-[3-(trifluoromethyl)-1-bicyclo[1.1.1]pentanyl]pteridine] | < 100
Cc1nc2nc(N3C[C@@H](C)O[C@@H](c4ccn5nccc5c4)C3)nc(C34CC(C(F)(F)F)(C3)C4)c2nc1C [Example 111, (2R,6S)-4-[6,7-dimethyl-4-[3-(trifluoromethyl)-1-bicyclo[1.1.1]pentanyl]pteridin-2-yl]-2-methyl-6-pyrazolo[1,5-a]pyridin-5-yl-morpholine] | < 100
Cc1nc2ccc(C3CC(c4nc(-c5ccc(F)cc5F)c5nc(C)c(C)nc5n4)CCO3)cc2o1 (centres unmarked) [Example 113, 6-[4-[4-(2,4-difluorophenyl)-6,7-dimethyl-pteridin-2-yl]tetrahydropyran-2-yl]-2-methyl-1,3-benzoxazole] | < 100
Cc1nc2nc(C3CCOC(c4ccc5nn(C)cc5c4)C3)nc(-c3ccc(F)cc3F)c2nc1C (centres unmarked) [Example 114, 4-(2,4-difluorophenyl)-6,7-dimethyl-2-[2-(2-methylindazol-5-yl)tetrahydropyran-4-yl]pteridine] | < 100
Cc1nc2ccc(C3CC(c4nc(-c5ccc(F)cc5F)c5nc(C)c(C)nc5n4)CCO3)cc2s1 (centres unmarked) [Example 115, 6-[4-[4-(2,4-difluorophenyl)-6,7-dimethyl-pteridin-2-yl]tetrahydropyran-2-yl]-2-methyl-1,3-benzothiazole] | < 100
Cc1cc2cc(C3CC(c4nc(-c5ccc(F)cc5F)c5nc(C)c(C)nc5n4)CCO3)ccn2n1 (centres unmarked) [Example 116, 4-(2,4-difluorophenyl)-6,7-dimethyl-2-[2-(2-methylpyrazolo-[1,5-a]pyridin-5-yl)tetrahydropyran-4-yl]pteridine] | < 100
Cc1nc2nc([C@H]3CCO[C@@H](c4cnn(C5CC5)c4)C3)nc(C34CC(C#N)(C3)C4)c2nc1C [Example 119, 3-(2-((2R,4S)-2-(1-cyclopropyl-1H-pyrazol-4-yl)tetrahydro-2H-pyran-4-yl)-6,7-dimethylpteridin-4-yl)bicyclo[1.1.1]pentane-1-carbonitrile] | 100 to 500
Cc1nc2nc(N3C[C@@H](C)O[C@@H](c4cnn(C5CC5)c4)C3)nc(C34C5C6C7C5C3C7C64)c2nc1C (stereo partly drawn) [Example 121, (2S,6R)-4-(4-cuban-1-yl-6,7-dimethyl-pteridin-2-yl)-2-(1-cyclopropylpyrazol-4-yl)-6-methyl-morpholine] | 100 to 500
Cc1nc2nc(C3CCOC(c4cnn5c4CCCC5)C3)nc(C34CC(C(F)(F)F)(C3)C4)c2nc1C (centres unmarked) [Example 123, 6,7-dimethyl-2-[2-(4,5,6,7-tetrahydropyrazolo[1,5-a]pyridin-3-yl)tetrahydropyran-4-yl]-4-[3-(trifluoromethyl)-1-bicyclo[1.1.1]pentanyl]pteridine] | > 500
Cc1nc2c(C34CC(C(F)(F)F)(C3)C4)nc(N3C[C@@H](C)O[C@@H](c4cnn(C5CC5)c4)C3)nc2c(=O)n1C [Example 127, 6-[(2S,6R)-2-(1-cyclopropylpyrazol-4-yl)-6-methyl-morpholin-4-yl]-2,3-dimethyl-8-[3-(trifluoromethyl)-1-bicyclo[1.1.1]pentanyl]pyrimido[5,4-d]pyrimidin-4-one] | < 100
Cc1cc2c(-c3ccc(C(F)(F)F)cc3F)nc([C@H]3CCO[C@@H](c4cnn(C5CC5)c4)C3)nc2c(=O)n1C [Example 136, 2-[(2R,4S)-2-(1-cyclopropylpyrazol-4-yl)tetrahydropyran-4-yl]-4-[2-fluoro-4-(trifluoromethyl)phenyl]-6,7-dimethyl-pyrido[3,4-d]pyrimidin-8-one] | < 100
CC1Cc2c(nc([C@H]3CCO[C@@H](c4cnn(C5CC5)c4)C3)nc2-c2ccc(C(F)(F)F)cc2F)C(=O)N1C (stereo partly drawn) [Example 138, 2-[(2R,4S)-2-(1-cyclopropylpyrazol-4-yl)tetrahydropyran-4-yl]-4-[2-fluoro-4-(trifluoromethyl)phenyl]-6,7-dimethyl-5,6-dihydropyrido[3,4-d]pyrimidin-8-one formic acid] | > 500
Cc1nc2nc([C@H]3CCO[C@@H](c4cnn(C5CC5)c4)C3)nc(C34C5C6C7C5C3C7C64)c2nc1C (stereo partly drawn) [Example 140, 2-((2R,4S)-2-(1-cyclopropyl-1H-pyrazol-4-yl)tetrahydro-2H-pyran-4-yl)-6,7-dimethyl-4-(cuban-1-yl)pteridine] | < 100
Cc1nc2nc([C@H]3CCO[C@@H](c4cnn(C5CC5)c4)C3)nc(C34C5C6C3C3C4C5C63C(F)(F)F)c2nc1C (stereo partly drawn) [Example 143, 2-((2R,4S)-2-(1-cyclopropyl-1H-pyrazol-4-yl)tetrahydro-2H-pyran-4-yl)-6,7-dimethyl-4-(4-(trifluoromethyl)-cuban-1-yl)pteridine] | < 100

Reference: US20260327225A1, “HETEROCYCLIC COMPOUNDS AS TRIGGERING RECEPTOR EXPRESSED ON MYELOID CELLS 2 AGONISTS AND METHODS OF USE” (VIGIL NEUROSCIENCE, INC., priority 2023, published 2026)
